Assays:
[1] = molecular target: α-glucosidase; assay: in vitro α-glucosidase inhibitory assay (p-nitrophenyl-D-glucopyranoside, 405 nm); assay type: biochemical; details: triplicates; standard acarbose; read-out: α-Glucosidase IC50 (µM ±SEM)
Experimental: 10 µl of the α-glucosidase enzyme, 20 µl of test samples (10-50 µg/ml) and 50 µl, of 0.1M phosphate buffer (pH=6.8), were incubated at 37°C for 15 min in a 96-well plate. 20 µl of p-nitrophenyl—D-glucopyranoside solution was further added as a substrate and again incubated for 20 min at 37 °C. Sodium carbonate (50 µl of 0.1M) was added to terminate the reaction. P-nitrophenol was liberated, during the reaction which was measured at 405nm using an ELISA microplate reader. […] All the experiments were carried out in triplicates. The percentage inhibition was calculated by the formula.
% Inhibition = [(Ac – As) /Ac] × 100 Ac-absorbance for control, As-absorbance for standard.

[2] = molecular target: T1, α-amylase (Sus scrofa, UniProt P00690); assay: in vitro α-amylase inhibitory assay (starch/DNS, absorbance 540 nm); assay type: biochemical; details: triplicates; standard acarbose; read-out: α-Amylase IC50 (µM ±SEM)
T1 sequence (P00690 16-511): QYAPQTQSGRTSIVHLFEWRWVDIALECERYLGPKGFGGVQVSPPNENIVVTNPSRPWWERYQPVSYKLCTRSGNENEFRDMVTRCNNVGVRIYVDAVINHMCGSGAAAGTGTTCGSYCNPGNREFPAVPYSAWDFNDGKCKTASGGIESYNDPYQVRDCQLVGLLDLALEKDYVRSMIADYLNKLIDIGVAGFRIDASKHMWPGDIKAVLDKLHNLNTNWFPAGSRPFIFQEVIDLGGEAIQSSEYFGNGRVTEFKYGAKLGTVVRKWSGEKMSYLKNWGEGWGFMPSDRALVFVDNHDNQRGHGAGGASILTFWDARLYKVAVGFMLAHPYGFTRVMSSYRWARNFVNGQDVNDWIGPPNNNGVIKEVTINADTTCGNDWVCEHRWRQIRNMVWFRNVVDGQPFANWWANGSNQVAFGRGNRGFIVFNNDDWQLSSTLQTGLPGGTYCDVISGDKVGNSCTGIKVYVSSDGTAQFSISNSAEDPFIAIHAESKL
Experimental: 20µL of α -amylase solution (0.5 mg/ml) was added to phosphate buffer (pH 6.9, 0.02 M, 200 µL). 250 μL of test samples (10-50 µg/mL) was added, to all the above solutions and kept for incubation for 10 min.1% starch solution (200µL) was further added and again kept for incubation for 10 min at a temperature of 25°C. Termination of the reaction was affected by the addition of 400 μL of 3, 5-dinitrosalicylic acid (DNS) reagent. Lastly, it was incubated in water (at 70°C, 5 min). The absorbance was recorded using an ELISA microplate reader at 540 nm. […] All the reactions were carried out in triplicates. The reaction mixture, devoid of the test sample, served as control. The following formula was employed to calculate percentage inhibition..
% Inhibition = [(Ac – As) /Ac] × 100 Ac-Control absorbance, As-Standard absorbance

Compound	IC50 [1] [µM]	IC50 [2] [µM]
O=[N+]([O-])c1cc(Cl)ccc1/C=N/c1nnc(-c2cccc3[nH]cnc23)s1 [Analog 14, (E)-N-(5-(1H-benzo[d]imidazol-4-yl)-1,3,4-thiadiazol-2-yl)-1-(4-chloro-2-nitrophenyl)methanimine]	9.3 ± 0.4	–
Fc1ccc(/C=N/c2nnc(-c3cccc4[nH]cnc34)s2)cc1 [Analog 9, (E)-N-(5-(1H-benzo[d]imidazol-4-yl)-1,3,4-thiadiazol-2-yl)-1-(4-fluorophenyl)methanimine]	3.9 ± 0.1	–
COc1ccccc1/C=N/c1nnc(-c2cccc3[nH]cnc23)s1 [Analog 12, (E)-N-(5-(1H-benzo[d]imidazol-4-yl)-1,3,4-thiadiazol-2-yl)-1-(2-methoxyphenyl)methanimine]	15.4 ± 0.3	–
O=[N+]([O-])c1cc(Br)ccc1/C=N/c1nnc(-c2cccc3[nH]cnc23)s1 [Analog 3, (E)-N-(5-(1H-benzo[d]imidazol-4-yl)-1,3,4-thiadiazol-2-yl)-1-(4-bromo-2-nitrophenyl)methanimine]	24.6 ± 0.2	–
Cc1ccccc1/C=N/c1nnc(-c2cccc3[nH]cnc23)s1 [Analog 7, (E)-N-(5-(1H-benzo[d]imidazol-4-yl)-1,3,4-thiadiazol-2-yl)-1-(o-tolyl)methanimine]	19.9 ± 0.1	–
Brc1ccc(/C=N/c2nnc(-c3cccc4[nH]cnc34)s2)cc1 [Analog 16, (E)-N-(5-(1H-benzo[d]imidazol-4-yl)-1,3,4-thiadiazol-2-yl)-1-(4-bromophenyl)methanimine]	26.1 ± 0.1	–
COc1cccc(/C=N/c2nnc(-c3cccc4[nH]cnc34)s2)c1 [Analog 13, (E)-N-(5-(1H-benzo[d]imidazol-4-yl)-1,3,4-thiadiazol-2-yl)-1-(3-methoxyphenyl)methanimine]	17.2 ± 0.3	–
O=[N+]([O-])c1ccccc1/C=N/c1nnc(-c2cccc3[nH]cnc23)s1 [Analog 4, (E)-N-(5-(1H-benzo[d]imidazol-4-yl)-1,3,4-thiadiazol-2-yl)-1-(2 nitrophenyl)methanimine]	7.4 ± 0.3	–
Oc1cc(F)ccc1/C=N/c1nnc(-c2cccc3[nH]cnc23)s1 [Analog 2, (E)-2-(((5-(1H-benzo[d]imidazol-4-yl)-1,3,4-thiadiazol-2-yl)imino)methyl)-5-fluorophenol]	2.1 ± 0.1	–
(E)-N-(5-(1H-benzo[d]imidazol-4-yl)-1,3,4-thiadiazol-2-yl)-1-(3-fluorophenyl)methanimine [Analog 11]	4.7 ± 0.1	3.18 ± 0.1
Clc1cccc(/C=N/c2nnc(-c3cccc4[nH]cnc34)s2)c1Cl [Analog 15, (E)-N-(5-(1H-benzo[d]imidazol-4-yl)-1,3,4-thiadiazol-2-yl)-1-(2,3-dichlorophenyl)methanimine]	6.6 ± 0.1	–
O=[N+]([O-])c1ccc(/C=N/c2nnc(-c3cccc4[nH]cnc34)s2)cc1 [Analog 5, (E)-N-(5-(1H-benzo[d]imidazol-4-yl)-1,3,4-thiadiazol-2-yl)-1-(4-nitrophenyl)methanimine]	5.7 ± 0.2	–
FC(F)(F)c1ccc(/C=N/c2nnc(-c3cccc4[nH]cnc34)s2)cc1 [Analog 1, (E)-N-(5-(1H-benzo[d]imidazol-4-yl)-1,3,4-thiadiazol-2-yl)-1-(4-(trifluoromethyl)phenyl)methanimine]	2.8 ± 0.2	–
Cc1ccc(/C=N/c2nnc(-c3cccc4[nH]cnc34)s2)cc1 [Analog 6, (E)-N-(5-(1H-benzo[d]imidazol-4-yl)-1,3,4-thiadiazol-2-yl)-1-(p-tolyl)methanimine]	15.3 ± 0.1	–
COc1ccc(OC)c(/C=N/c2nnc(-c3cccc4[nH]cnc34)s2)c1 [Analog 10, (E)-N-(5-(1H-benzo[d]imidazol-4-yl)-1,3,4-thiadiazol-2-yl)-1-(2,5-dimethoxyphenyl)methanimine]	14.5 ± 0.5	–
(E)-N-(5-(1H-benzo[d]imidazol-4-yl)-1,3,4-thiadiazol-2-yl)-1-(4-bromophenyl)methanimine [Analog 17]	2.3 ± 0.6	2.16 ± 0.5
Cc1cccc(/C=N/c2nnc(-c3cccc4[nH]cnc34)s2)c1 [Analog 8, (E)-N-(5-(1H-benzo[d]imidazol-4-yl)-1,3,4-thiadiazol-2-yl)-1-(m-tolyl)methanimine]	21.6 ± 0.3	–

From paper PMC10196468, “Synthesis, in vitro biological assessment, and molecular docking study of benzimidazole-based thiadiazole derivatives as dual inhibitors of α-amylase and α-glucosidase” (Frontiers in Chemistry, 2023)
